Test results taken from ChEMBL document CHEMBL1255325, “Plasmid-mediated qepA gene among Escherichia coli clinical isolates from Japan” (2008).
Values after ≈ are worked out from the molar mass of the structure shown.

Legend:
Escherichia coli [1] = test: Antimicrobial activity against Escherichia coli MRY04-1060 expressing qepA gene by agar dilution CLSI method; type: functional
Escherichia coli [2] = test: Antimicrobial activity against Escherichia coli DH10B harboring p041060 carrying qepA gene by agar dilution CLSI method; type: functional
Escherichia coli [3] = test: Antimicrobial activity against Escherichia coli DH10B harboring p05283 carrying qepA and rmtB gene by agar dilution CLSI method; type: functional
Escherichia coli [4] = test: Antimicrobial activity against Escherichia coli MRY05-3283 expressing qepA and rmtB gene by agar dilution CLSI method; type: functional
Escherichia coli [5] = test: Antimicrobial activity against Escherichia coli isolate DH10B by agar dilution CLSI method
Escherichia coli [6] = test: Ratio of MIC for Escherichia coli DH10B harboring p041060 carrying qepA gene to MIC for Escherichia coli isolate DH10B; type: functional
Escherichia coli [7] = test: Ratio of MIC for Escherichia coli DH10B harboring p05283 carrying qepA and rmtB gene to MIC for Escherichia coli isolate DH10B; type: functional

Row | Molecule | MIC (Escherichia coli [1]) | MIC (Escherichia coli [2]) | MIC (Escherichia coli [3]) | MIC (Escherichia coli [4]) | MIC (Escherichia coli [5]) | Ratio (Escherichia coli [6]) | Ratio (Escherichia coli [7])
1 | CO/N=C(\C(=O)N[C@@H]1C(=O)N2C(C(=O)O)=C(COC(C)=O)CS[C@H]12)c1csc(N)n1 [CEFOTAXIME] | 0.13 µg/mL (≈ 0.285 µM) | 0.06 µg/mL (≈ 0.132 µM) | 0.06 µg/mL (≈ 0.132 µM) | 0.13 µg/mL (≈ 0.285 µM) | 0.06 µg/mL (≈ 0.132 µM) |  | 
2 | NCC[C@H](O)C(=O)N[C@@H]1C[C@H](N)[C@@H](O[C@H]2O[C@H](CN)[C@@H](O)[C@H](O)[C@H]2O)[C@H](O)[C@H]1O[C@H]1O[C@H](CO)[C@@H](O)[C@H](N)[C@H]1O [AMIKACIN] | > 128 µg/mL | > 128 µg/mL | > 128 µg/mL | > 128 µg/mL | 2 µg/mL (≈ 3.42 µM) |  | 
3 | C[C@H]1COc2c(N3CCN(C)CC3)c(F)cc3c(=O)c(C(=O)O)cn1c23.C[C@H]1COc2c(N3CCN(C)CC3)c(F)cc3c(=O)c(C(=O)O)cn1c23.O [LEVOFLOXACIN] | 64 µg/mL |  |  | 128 µg/mL | ≤ 0.008 µg/mL |  | 
4 | CC(C)(O/N=C(\C(=O)N[C@@H]1C(=O)N2C(C(=O)[O-])=C(C[n+]3ccccc3)CS[C@H]12)c1csc(N)n1)C(=O)O [CEFTAZIDIME] | 0.5 µg/mL (≈ 0.915 µM) | 0.5 µg/mL (≈ 0.915 µM) | 0.5 µg/mL (≈ 0.915 µM) | 0.5 µg/mL (≈ 0.915 µM) | 0.25 µg/mL (≈ 0.457 µM) |  | 
5 | GENTAMICIN | > 128 µg/mL | > 128 µg/mL | > 128 µg/mL | > 128 µg/mL |  |  | 
6 | NC[C@H]1O[C@H](O[C@H]2[C@H](O)[C@@H](O[C@H]3O[C@H](CO)[C@@H](O)[C@H](N)[C@H]3O)[C@H](N)C[C@@H]2N)[C@H](N)C[C@@H]1O [TOBRAMYCIN] | > 128 µg/mL | > 128 µg/mL | > 128 µg/mL | > 128 µg/mL | 0.5 µg/mL (≈ 1.07 µM) |  | 
7 | CCn1cc(C(=O)O)c(=O)c2cc(F)c(N3CCNCC3)cc21 [NORFLOXACIN] | > 128 µg/mL | 0.25 µg/mL (≈ 0.783 µM) | 0.25 µg/mL (≈ 0.783 µM) | > 128 µg/mL | ≤ 0.008 µg/mL | 4 | 4
8 | C[C@@H](O)[C@H]1C(=O)N2C(C(=O)O)=C(SCCNC=N)C[C@H]12 [IMIPENEM ANHYDROUS] | 0.13 µg/mL (≈ 0.434 µM) |  |  | 0.13 µg/mL (≈ 0.434 µM) | 0.25 µg/mL (≈ 0.835 µM) |  | 
